Consider 1 compound from patent publication US10030027B2, “Soluble guanylate cyclase stimulators” (MERCK SHARP & DOHME CORP., priority 2015, dated 2018).

In assay [1] the test system is Spontaneously hypertensive rats (SHR). Briefly: Acute efficacy in spontaneously hypertensive rats (SHR). Type of assay: in vivo, rat. The conditions noted are these: Dose P.O. 3 mpk. In a few lines: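 Conscious male SHR with aortic telemetry implants given a single oral gavage of compound in 10% transcutol/20% Cremophor/70% water. Blood pressure sampled continuously, averaged hourly and corrected against vehicle baseline recorded the previous day; maximum peak systolic BP decrease reported at stated oral dose (mg/kg).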

The test system of assay [2] is hypoxia-induced pulmonary hypertension rat. The assay is described as follows: Acute efficacy in hypoxia-induced pulmonary hypertension in rat following intratracheal administration. It is filed as in vivo. The conditions noted are these: Dose IT 0.03 mpk. Summed up:
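Male Sprague-Dawley rats with pulmonary and femoral artery telemetry, after two weeks in 10% O2 (systolic PAP 50-110 mmHg), dosed intratracheally by microsprayer (0.5 mL/kg) under light isoflurane. Day 1 vehicle, Day 2 compound, dose in mg/kg. Hourly systolic PAP and SBP changes from vehicle baseline as mean±SEM.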

In assay [3] the target is sGC α1/β1 heterodimer (Homo sapiens (Human), UniProt Q02108+Q02153). The assay is described as follows: Cell-based sGC functional assay (cyclic GMP assay for sGC activator: CASA assay). The settings on record: CHO-K1/sGC cells. In a few lines: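 CHO-K1 cells stably expressing sGC α1/β1 were pre-incubated with or without 1 μM DETA-NO (30 min, 25 °C), then exposed to compounds for 1 hr at 37 °C with 0.5 mM IBMX. Intracellular cGMP was read by HTRF and expressed as a percentage of a reference heme-dependent activator's maximum.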

The target of assay [4] is human recombinant sGC enzyme (Homo sapiens (Human), UniProt Q02108+Q02153). Briefly: Size Exclusion Chromatography (SEC) competition binding assay using [3H] Ex-77B as the radioligand. The conditions noted are these: [3H] Ex-77B radioligand, 24 hours at 37° C. In a few lines:
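Recombinant human sGC binding measured by competition against tritiated Ex-77B radioligand, with non-specific binding defined by 1 μM unlabeled Ex-77B.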
(SEC sorts molecules by how far they enter the pores of the column.)

The structures appear in SMILES notation.

One may read the Ki as a dissociation constant, usually derived from enzyme kinetics or from competition with a known ligand. Turning to `CC(C)(Cc1coc(C2(C)C(=O)Nc3nc(-c4nn(CCC(F)(F)C(F)(F)F)c5cc(Cl)ccc45)nc(N)c32)n1)C(=O)O` (centres unmarked) [Example 2A, 3-(2-{4-amino-2-[6-chloro-1-(3,3,4,4,4-pentafluorobutyl)-1H-indazol-3-yl]-5-methyl-6-oxo-6,7-dihydro-5H-pyrrolo[2,3-d]pyrimidin-5-yl}oxazol-4-yl)-2,2-dimethyl-propanoic acid], the “Category: maximum peak decrease of systolic blood pressure (SBP) in SHR” value in assay [1] is given as “A (decrease in SBP in SHRs 5-25 mmHg)”. The “Category: decrease in SBP (at minimum decrease in PAP of ≥15 mmHg)” value in assay [2] is recorded as “A (decrease in SBP 0-5 mmHg)”. Moreover, the Emax in assay [3] (CHO-K1, activity expressed as percentage of compound A (standard), read-out: % Activation) turned out to be 111%. Besides, the EC50 in assay [3] (inflection point, 4P fit, read-out: IP) is 1060 nM. In assay [4], the Ki turned out to be 0.322 nM.
